# Assay results reported in US6310213A, “Ethanesulfonyl-piperidine derivatives” (Hoffmann-La Roche Inc., priority 1999, dated 2001).
# Several values for one entry are separate records, joined by “and”; a condition that tells them apart may be missing. Equal entries are not always repeated.
# Assays:
# [1] = target: T1, NMDA NR2B subunit containing receptors (Rattus norvegicus, UniProt P35439+Q00960); experiment: 3H [R-(R*,S*)]-α-(4-Hydroxy-phenyl)-β-methyl-4-(phenyl-methyl)-1-piperidine propanol binding; set-up: species or system rat (Male Fullinsdorf albino rats); conditions: rat brain membranes, 5 nM radioligand, 2 hours at 4° C., pH 7.4; read-out: Inhibition of 3H [R-(R*, S*)]-α-(4-Hydroxy-phenyl)-β-methyl-4-(phenyl-methyl)-1-piperidine propanol binding IC50
# T1 construct: Membranes were prepared by homogenization of the whole brain minus cerebellum and medulla oblongata; from tissue; host or cells: rat whole brain minus cerebellum and medulla oblongata, membranes
# T1 sequence (Q00960 27-1482, other chains not shown): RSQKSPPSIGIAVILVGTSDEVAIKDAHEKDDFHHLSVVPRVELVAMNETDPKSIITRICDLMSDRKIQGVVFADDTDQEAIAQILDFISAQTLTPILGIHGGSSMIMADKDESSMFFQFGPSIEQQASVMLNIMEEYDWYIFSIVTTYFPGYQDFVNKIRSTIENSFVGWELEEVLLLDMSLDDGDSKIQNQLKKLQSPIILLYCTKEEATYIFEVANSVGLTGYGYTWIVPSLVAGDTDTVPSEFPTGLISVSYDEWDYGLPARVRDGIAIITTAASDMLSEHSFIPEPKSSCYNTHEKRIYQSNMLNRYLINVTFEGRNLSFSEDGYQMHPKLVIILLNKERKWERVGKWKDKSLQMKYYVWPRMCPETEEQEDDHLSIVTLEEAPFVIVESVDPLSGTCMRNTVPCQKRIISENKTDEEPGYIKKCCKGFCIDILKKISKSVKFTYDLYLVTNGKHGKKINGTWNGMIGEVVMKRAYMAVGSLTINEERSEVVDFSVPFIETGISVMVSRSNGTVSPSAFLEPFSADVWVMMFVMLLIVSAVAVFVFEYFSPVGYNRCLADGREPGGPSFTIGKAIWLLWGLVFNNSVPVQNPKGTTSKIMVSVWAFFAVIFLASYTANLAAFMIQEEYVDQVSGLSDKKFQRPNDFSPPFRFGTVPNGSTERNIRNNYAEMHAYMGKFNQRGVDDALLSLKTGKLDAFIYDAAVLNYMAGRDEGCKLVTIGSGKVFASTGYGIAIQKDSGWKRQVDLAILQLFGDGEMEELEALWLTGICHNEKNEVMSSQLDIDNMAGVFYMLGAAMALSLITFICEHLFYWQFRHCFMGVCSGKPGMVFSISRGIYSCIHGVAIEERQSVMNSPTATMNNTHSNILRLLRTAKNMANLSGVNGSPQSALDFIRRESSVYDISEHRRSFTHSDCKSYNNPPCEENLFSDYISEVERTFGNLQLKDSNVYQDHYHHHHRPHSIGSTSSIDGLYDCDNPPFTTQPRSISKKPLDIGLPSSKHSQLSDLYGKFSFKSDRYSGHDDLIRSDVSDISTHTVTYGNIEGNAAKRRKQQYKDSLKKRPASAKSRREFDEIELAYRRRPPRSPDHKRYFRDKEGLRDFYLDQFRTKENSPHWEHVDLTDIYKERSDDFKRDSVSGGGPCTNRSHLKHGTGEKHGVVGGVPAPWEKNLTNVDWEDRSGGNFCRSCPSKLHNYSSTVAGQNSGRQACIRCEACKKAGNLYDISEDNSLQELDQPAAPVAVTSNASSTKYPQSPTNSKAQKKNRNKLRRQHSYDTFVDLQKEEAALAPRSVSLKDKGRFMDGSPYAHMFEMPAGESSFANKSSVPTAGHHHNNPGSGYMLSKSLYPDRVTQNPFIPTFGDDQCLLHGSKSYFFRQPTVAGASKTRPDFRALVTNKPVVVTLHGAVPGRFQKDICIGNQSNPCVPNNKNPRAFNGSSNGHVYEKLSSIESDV
# Description: ^a Inhibition of binding indicates affinity for NMDA NR2B subunit
# 3H [R-(R*,S*)]-α-(4-Hydroxy-phenyl)-β-methyl-4-(phenyl-methyl)-1-piperidine propanol) binding
# (§1) Male Fullinsdorf albino rats weighing between 150-200 g were used. Membranes were prepared by homogenization of the whole brain minus cerebellum and medulla oblongata with a Polytron (10.000 rpm, 30 seconds), in 25 volumes of a cold Tris-HCl 50 mM, EDTA 10 mM, pH 7.1 buffer. The homogenate was centrifuged at 48.000 g for 10 minutes at 4° C. The pellet was resuspended using the Polytron in the same volume of buffer and the homogenate was incubated at 37° C. for 10 minutes. After centrifugation the pellet was homogenized in the same buffer and frozen at -100° C. for at least 16 hours but not more than 10 days. For the binding assay the homogenate was thawed at 37° C., centrifuged and the pellet was washed three times as above in a Tris-HCl 5 mM, pH 7.4 cold buffer. The final pellet was resuspended in the same buffer and used at a final concentration of 200 μg of protein/ml.
# 3H [R-(R*,S*)]-α-(4-Hydroxy-phenyl)-β-methyl-4-(phenyl-methyl)-1-piperidine propanol binding experiments were performed using a Tris-HCl 50 mM, pH 7.4 buffer. For displacement experiments 5 nM of 3H [R-(R*,S*)]-α-(4-Hydroxy-phenyl)-β-methyl-4-(phenyl-methyl)-1-piperidine propanol were used and non specific binding was measured using 10 μM of tetrahydroisoquinoline and usually it accounts for 10% of the total. The incubation time was 2 hours at 4° C. and the assay was stopped by filtration on Whatmann GF/B glass fiber filters (Unifilter-96, Packard, Zurich, Switzerland). The filters were washed 5 times with cold buffer. The radioactivity on the filter was counted on a Packard Top-count microplate scintillation counter after addition of […] of microscint 40 (Canberra Packard S. A., Zurich, Switzerland).
# The effects of compounds were measured using a minimum of 8 concentrations and repeated at least once. The pooled normalized values were analyzed using a non-linear regression calculation program which provide IC50 with their relative upper and lower 95% confidence limits (RS1, BBN, USA).
# α1-adrenergic receptors = experiment: 3H-Prazosin binding; set-up: species or system rat (Male Fullinsdorf albino rats); conditions: rat brain membranes, 0.2 nM 3H-Prazosine, 30 minutes at room temperature, pH 7.4; read-out: Inhibition of [3H]-Prazosin binding IC50
# Description: ^b Inhibition of binding indicates affinity for α1
# as §1, with “a Plytron” for “a Polytron”, “at -80°” for “at -100°”, “Tris-HCl 15mM,” for “Tris-HCl 5 mM,”, “[…]” for “200 μg”
# 3H-Prazosin binding experiments were performed using a Tris-HCl 50 mM, pH 7.4 buffer. For displacement experiments 0.2 nM of 3H-Prazosine were used and non specific binding was measured using […] of Chlorpromazine. The incubation time was 30 minutes at room temperature and the assay was stopped by filtration on Whatman GF/B glass fiber filters (Ubrifilter-96, Canberra Packard S. A., Zurich, Switzerland). The filters were washed 5 times with cold buffer. The radioactivity on the filter was counted on a Packard Top-count microplate scintillation counter after addition of […] of microscint 40 (Canberra Packard S. A., Zurich, Switzerland). The effects of compounds were measured using a minimum of 8 concentrations and repeated at least once. The pooled normalized values were analyzed using a non-linear regression calculation program which provide IC50 with their relative upper and lower 95% confidence limits (RS1, BBN, USA).
# NMDA NR1 + NR2B = target: T2, NMDA NR1 + NR2B (Homo sapiens, UniProt Q05586+Q13224); experiment: Block of recombinant NMDA receptor subtype NR1 + NR2B expressed in Xenopus oocytes; format: cell-based
# T2 construct: expressed in transfected cells; host or cells: Xenopus oocytes
# T2 sequence (Q13224 27-1484, other chains not shown): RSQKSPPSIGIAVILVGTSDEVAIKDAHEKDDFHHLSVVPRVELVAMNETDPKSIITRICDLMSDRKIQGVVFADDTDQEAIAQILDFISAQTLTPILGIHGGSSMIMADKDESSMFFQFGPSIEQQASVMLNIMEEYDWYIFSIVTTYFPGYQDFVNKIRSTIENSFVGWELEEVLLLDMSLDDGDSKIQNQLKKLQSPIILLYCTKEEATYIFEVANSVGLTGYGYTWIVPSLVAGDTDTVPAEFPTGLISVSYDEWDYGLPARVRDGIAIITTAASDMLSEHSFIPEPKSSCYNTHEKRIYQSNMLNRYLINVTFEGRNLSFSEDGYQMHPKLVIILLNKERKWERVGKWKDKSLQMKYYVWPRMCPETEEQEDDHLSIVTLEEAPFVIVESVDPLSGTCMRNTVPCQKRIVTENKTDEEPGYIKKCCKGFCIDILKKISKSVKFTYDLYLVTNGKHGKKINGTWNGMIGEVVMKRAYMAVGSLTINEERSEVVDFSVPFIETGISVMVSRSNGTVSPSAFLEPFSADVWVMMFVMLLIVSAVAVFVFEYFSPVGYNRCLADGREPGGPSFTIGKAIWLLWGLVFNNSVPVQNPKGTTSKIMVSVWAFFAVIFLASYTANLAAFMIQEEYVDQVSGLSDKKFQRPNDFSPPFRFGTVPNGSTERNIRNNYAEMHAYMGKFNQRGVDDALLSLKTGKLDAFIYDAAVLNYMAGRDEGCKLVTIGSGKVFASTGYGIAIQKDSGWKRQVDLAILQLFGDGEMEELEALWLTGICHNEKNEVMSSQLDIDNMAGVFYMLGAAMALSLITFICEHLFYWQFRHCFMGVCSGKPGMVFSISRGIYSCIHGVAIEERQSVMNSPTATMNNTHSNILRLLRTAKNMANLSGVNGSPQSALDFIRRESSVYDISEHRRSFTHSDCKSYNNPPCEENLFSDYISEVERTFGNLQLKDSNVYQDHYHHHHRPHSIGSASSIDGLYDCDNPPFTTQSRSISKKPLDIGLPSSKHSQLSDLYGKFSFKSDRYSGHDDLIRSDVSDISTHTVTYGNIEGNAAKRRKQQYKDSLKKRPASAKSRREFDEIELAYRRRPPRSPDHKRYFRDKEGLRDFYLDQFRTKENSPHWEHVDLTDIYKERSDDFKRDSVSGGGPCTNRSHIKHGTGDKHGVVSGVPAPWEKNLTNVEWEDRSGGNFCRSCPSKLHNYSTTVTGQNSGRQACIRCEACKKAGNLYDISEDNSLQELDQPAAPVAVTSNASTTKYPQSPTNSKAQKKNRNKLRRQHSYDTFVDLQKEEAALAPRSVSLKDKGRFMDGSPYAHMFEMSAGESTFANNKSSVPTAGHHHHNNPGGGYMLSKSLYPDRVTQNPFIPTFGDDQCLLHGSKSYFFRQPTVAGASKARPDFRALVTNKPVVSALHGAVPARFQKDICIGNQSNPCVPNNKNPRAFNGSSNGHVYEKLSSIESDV
# Source text: (§2) ^c Indicates the ability to block selectively recombinant NMDA receptor
# (§3) subtypes expressed in Xenopus oocytes.
# NMDA NR1 + NR2A = target: T3, NMDA NR1 + NR2A (Homo sapiens, UniProt Q05586+Q12879); experiment: Block of recombinant NMDA receptor subtype NR1 + NR2A expressed in Xenopus oocytes; format: cell-based
# T3 construct: expressed in transfected cells; host or cells: Xenopus oocytes
# T3 sequence (Q12879 23-1464, other chains not shown): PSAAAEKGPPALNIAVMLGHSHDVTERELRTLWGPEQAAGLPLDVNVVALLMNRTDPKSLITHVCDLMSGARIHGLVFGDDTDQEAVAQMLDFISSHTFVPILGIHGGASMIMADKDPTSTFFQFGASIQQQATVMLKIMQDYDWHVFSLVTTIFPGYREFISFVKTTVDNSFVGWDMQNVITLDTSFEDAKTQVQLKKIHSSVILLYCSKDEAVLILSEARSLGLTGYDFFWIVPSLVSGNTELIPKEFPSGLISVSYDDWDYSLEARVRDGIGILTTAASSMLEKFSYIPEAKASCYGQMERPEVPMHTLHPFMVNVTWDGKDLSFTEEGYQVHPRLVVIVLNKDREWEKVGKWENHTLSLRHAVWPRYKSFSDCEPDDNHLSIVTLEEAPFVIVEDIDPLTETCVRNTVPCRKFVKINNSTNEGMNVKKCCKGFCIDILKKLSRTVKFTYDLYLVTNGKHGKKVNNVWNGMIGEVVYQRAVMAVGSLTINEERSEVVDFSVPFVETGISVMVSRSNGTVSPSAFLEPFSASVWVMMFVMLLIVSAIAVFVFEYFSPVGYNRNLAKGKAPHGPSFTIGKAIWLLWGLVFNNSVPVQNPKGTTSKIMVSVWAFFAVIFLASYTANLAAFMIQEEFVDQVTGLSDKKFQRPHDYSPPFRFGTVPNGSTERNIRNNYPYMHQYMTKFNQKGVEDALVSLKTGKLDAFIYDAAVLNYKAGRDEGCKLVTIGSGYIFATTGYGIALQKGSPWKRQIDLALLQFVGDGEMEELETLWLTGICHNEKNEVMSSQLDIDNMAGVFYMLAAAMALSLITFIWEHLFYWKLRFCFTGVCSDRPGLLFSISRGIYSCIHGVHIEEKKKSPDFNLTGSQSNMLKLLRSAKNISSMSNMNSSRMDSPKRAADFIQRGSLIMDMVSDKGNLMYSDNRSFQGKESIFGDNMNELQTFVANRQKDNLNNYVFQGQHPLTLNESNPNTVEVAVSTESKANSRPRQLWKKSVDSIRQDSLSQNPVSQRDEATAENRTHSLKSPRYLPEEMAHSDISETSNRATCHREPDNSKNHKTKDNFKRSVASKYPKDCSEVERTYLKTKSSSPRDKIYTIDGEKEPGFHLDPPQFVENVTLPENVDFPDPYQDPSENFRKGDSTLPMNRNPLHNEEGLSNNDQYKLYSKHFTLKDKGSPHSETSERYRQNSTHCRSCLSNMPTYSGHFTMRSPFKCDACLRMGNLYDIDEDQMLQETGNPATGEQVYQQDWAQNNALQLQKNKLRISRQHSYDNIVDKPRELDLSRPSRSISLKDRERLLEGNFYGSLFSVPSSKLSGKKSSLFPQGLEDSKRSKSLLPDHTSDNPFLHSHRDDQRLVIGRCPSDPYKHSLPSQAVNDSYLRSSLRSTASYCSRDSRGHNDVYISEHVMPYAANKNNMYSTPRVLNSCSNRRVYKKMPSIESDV
# Source text: as §2, §3
# [2] = test system: i.c.v. NMDA-induced convulsions in mice; experiment: Block of i.c.v. NMDA-induced convulsions in mice; format: in vivo; conditions: Mus musculus, iv
# Source text: |^d Indicates potency in mg/kg i.v. to block i.c.v. NMDA-induced | convulsions in mice.
# [3] = target: T4, recombinant human ERG potassium channels (Homo sapiens, UniProt Q12809); experiment: Inhibition of the HERG K+ channel, whole-cell patch-clamp, transfected CHO cells; format: cell-based; conditions: concentrations above 10 μM not tested
# T4 construct: expressed in transfected cells; host or cells: CHO cells, stably transfected with pcDNA3-HERG
# Source text: Method 3 Methods for Studying the Inhibition of the HERG K^+ Channel CHO cells were stably transfected by a pcDNA3-HERG expression vector containing a SV40-neo cassette for selection. Cells were thinly plated into 35 mm dishes and used for the electrophysiological experiment 1/2-3 d later. […] A 10-mM stock solution of the test compound was made from pure DMSO. Test solution were made by at least 1000-fold dilution of the stock solution into the extracellular saline. […] The whole-cell configuration of the patch-clamp technique was used for the experiments. […] The membrane current was recorded for at least 3 min (18 stimuli) before compound application (control), and then for another two 3-min intervals in presence of two different concentrations of the compound. The current amplitudes (Itest) at the end of each compound application interval were divided by the mean current amplitude (Icontrol) during the initial control period to calculate the percentage effect of the compound: effect (%)=(1-Itest /Icontrol)·100. […] If after the first experiment the IC50 turned out to lie outside the range between the two chosen concentrations the concentrations were changed to bracket the IC50 in the following experiments. The compound was tested on at least three cells.
SMILES,IC50 [1],IC50 (α1-adrenergic receptors) [nM],IC50 (NMDA NR1 + NR2B) [nM],IC50 (NMDA NR1 + NR2A) [nM],ED50 [2] [mg/kg],IC50 [3] [nM]
"Cc1ccc(OC2CCN(CCS(=O)(=O)c3ccc(O)cc3)CC2)cc1 [Compound 2, 4-[2-(4-p-tolyloxy-piperidin-1-yl)-ethanesulfonyl]-phenol]",24 nM and 11 to 24 nM,16000,< 10,> 10000,0.84,4700
"Cc1ccc(CC2(O)CCN(CCOc3ccc(O)cc3)CC2)cc1 [Compound 9, 1-[2-(4-hydroxy-phenoxy)-ethyl]-4-(4-methyl-benzyl)-piperidin-4-ol, reference compound]",–,3500,3,> 100000,2.3,690
"O=S(=O)(CCN1CCC(Cc2ccccc2)CC1)c1ccc(O)cc1 [Compound 1, 4[-2-(4-benzyl-piperidine-1-yl)-ethanesulfonyl]-phenol]",18 nM and 11 to 24 nM,42000,< 10,> 10000,1.1,4000
"O=S(=O)(CCN1CC[C@H](Cc2ccccc2)[C@H](O)C1)c1ccc(O)cc1 [Compound 3, (-)(3S,4S)-4-benzyl-1-[2-(4-hydroxy-benzenesulfonyl)-ethyl]-piperidin-3-ol]",14 nM and 11 to 24 nM,55000,38,> 10000,3.8,–
"Cc1ccc(C[C@H]2CCN(CCS(=O)(=O)c3ccc(O)cc3)C[C@H]2O)cc1 (single isomer, unassigned) [Compound 6, (-)(cis)-1-[2-(4-hydroxy-benzenesulfonyl)-ethyl]-4-(4-methyl-benzyl)-piperidin-3-ol]",11 nM and 11 to 24 nM,88000,8,> 10000,2.2,3700
